Measured values taken from patent publication US12077503B2, “Substituted cyclic amides and their use as herbicides” (FMC CORPORATION, priority 2015, dated 2024).

How the values were obtained:
Format in all cases: in vivo
[1] = system: sedge, umbrella (small-flower umbrella sedge, Cyperus difformis); experiment: Test B flooded paddy test; settings: Flood, 250 g ai/ha; 0 to 100 scale where 0 is no effect and 100 is complete control; 13 to 15 d
How it was run: (§1)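 Plants at 2-leaf stage flooded to 3 cm above soil, with compounds applied directly to paddy water and that depth maintained. Plants kept in greenhouse 13–15 d. Visual rating versus controls on a 0 (no effect) to 100 (complete control) scale.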

[2] = system: ducksalad (Heteranthera limosa); experiment: Test B flooded paddy test; settings: Flood, 250 g ai/ha; 0 to 100 scale where 0 is no effect and 100 is complete control; 13 to 15 d
How it was run: as §1

rice (Oryra sativa) = experiment: Test B flooded paddy test; settings: Flood, 250 g ai/ha; 0 to 100 scale where 0 is no effect and 100 is complete control; 13 to 15 d
How it was run: as §1

[3] = system: barnyardgrass (Echinochloa crus-galli); experiment: Test B flooded paddy test; settings: Flood, 250 g ai/ha; 0 to 100 scale where 0 is no effect and 100 is complete control; 13 to 15 d
How it was run: as §1

[4] = system: ragweed (common ragweed, Ambrosia elatior); experiment: Test A preemergence; settings: Preemergence
How it was run: (§2)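 In a loam soil and sand blend, planted seeds got a preemergence directed soil spray, and young plants at the one- to two-leaf stage, 2–10 cm high, got a postemergence application; ~10 d greenhouse hold; injury rated visually, 0 = none, 100 = complete control.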

Kochia (Kochia scoparia) [5] = experiment: Test A preemergence; settings: Preemergence
How it was run: as §2

[6] = system: ryegrass, Italian (Italian ryegrass, Lolium multiflorum); experiment: Test A preemergence; settings: Preemergence
How it was run: as §2

[7] = system: barnyardgrass (Echinochloa crus-galli); experiment: Test A preemergence; settings: Preemergence
How it was run: as §2

[8] = system: giant foxtail (Setaria faberii); experiment: Test A preemergence; settings: Preemergence
How it was run: as §2

[9] = system: pigweed (Amaranthus retroflexus); experiment: Test A preemergence; settings: Preemergence
corn (Zea mays) = experiment: Test A postemergence
How it was run: as §2

[10] = system: blackgrass (Alopecurus myosuroides); experiment: Test A postemergence
How it was run: as §2

[11] = system: ragweed (common ragweed, Ambrosia elatior); experiment: Test A postemergence
How it was run: as §2

Kochia (Kochia scoparia) [12] = experiment: Test A postemergence
How it was run: as §2

[13] = system: Galium (catchweed bedstraw, Galium aparine); experiment: Test A postemergence
How it was run: as §2

[14] = system: wheat (Triticum aestivum); experiment: Test A postemergence
How it was run: as §2

[15] = system: ryegrass, Italian (Italian ryegrass, Lolium multiflorum); experiment: Test A postemergence
How it was run: as §2

[16] = system: barnyardgrass (Echinochloa crus-galli); experiment: Test A postemergence
How it was run: as §2

[17] = system: giant foxtail (Setaria faberii); experiment: Test A postemergence
How it was run: as §2

[18] = system: pigweed (Amaranthus retroflexus); experiment: Test A postemergence
How it was run: as §2

[19] = system: sedge, umbrella (small-flower umbrella sedge, Cyperus difformis); experiment: Test C flooded paddy test; settings: Flood, 0 is no effect, 100 is complete control
Description: (§3) Plant species in the flooded paddy test consisted of rice (Oryza sativa), sedge, umbrella (small-flower umbrella sedge, Cyperus difformis), ducksalad (Heteranthera limosa), and barnyardgrass (Echinochloa crus-galli) grown to the 2-leaf stage for testing. At time of treatment, test pots were flooded to 3 cm above the soil surface, treated by application of test compounds directly to the paddy water, and then maintained at that water depth for the duration of the test. Treated plants and controls were maintained in a greenhouse for 13 to 15 d, after which time all species were compared to controls and visually evaluated. Plant response ratings, summarized in Table C, are based on a scale of 0 to 100 where 0 is no effect and 100 is complete control. A dash (-) response means no test result.

[20] = system: ducksalad (Heteranthera limosa); experiment: Test C flooded paddy test; settings: Flood, 0 is no effect, 100 is complete control
Description: as §3

[21] = system: barnyardgrass (Echinochloa crus-galli); experiment: Test C flooded paddy test; settings: Flood, 0 is no effect, 100 is complete control
Description: as §3

rice (Oryza sativa) = experiment: Test C flooded paddy test; settings: Flood, 0 is no effect, 100 is complete control
Description: as §3

[22] = 125 g ai/ha, visual injury after approximately 10 d, 0 to 100 scale where 0 is no effect and 100 is complete control
[23] = 500 g ai/ha, visual injury approx. 10 d
[24] = 125 g ai/ha, postemergence, visual rating after approx. 10 d, 0 to 100 scale (0 no effect, 100 complete control)
[25] = Postemergence, 500 g ai/ha, 0 to 100 scale where 0 is no effect and 100 is complete control

C=CCN1CC(c2cccc(C(F)(F)F)c2)C(C(=O)Nc2cccc(F)c2F)C1=O (stereo not shown) [Compound 606]
90: Foxtail, Giant plant response rating (0 to 100 scale, 0 is no effect, 100 is complete control) [8, 23] | Plant response rating, Foxtail, Giant [17, 25]
70: Plant response rating, Galium [13, 25] | Plant response rating, Barnyardgrass [16, 25] | Plant response rating, Foxtail, Giant [17, 24] | Plant response rating, Pigweed [18, 25] | Plant response rating (scale of 0 to 100), Ducksalad ([20]; 250 g ai/ha)
80: Barnyardgrass plant response rating (0 to 100 scale, 0 is no effect, 100 is complete control) [7, 23] | Plant response rating, Foxtail, Giant [8, 22]
0: Plant response rating, Ducksalad [2] | Plant response rating, Rice (rice (Oryra sativa)) | Plant response rating, Ragweed [4, 22] | Ragweed plant response rating (0 to 100 scale, 0 is no effect, 100 is complete control) [4, 23] | Plant response rating, Kochia (Kochia (Kochia scoparia) [5]; [22]) | Kochia plant response rating (0 to 100 scale, 0 is no effect, 100 is complete control) (Kochia (Kochia scoparia) [5]; [23]) | Plant response rating, Ryegrass, Italian [6, 22] | Ryegrass, Italian plant response rating (0 to 100 scale, 0 is no effect, 100 is complete control) [6, 23] | Plant response rating, Pigweed [9, 22] | Pigweed plant response rating (0 to 100 scale, 0 is no effect, 100 is complete control) [9, 23] | Plant response rating, Corn (corn (Zea mays); [24]) | Plant response rating, Corn (corn (Zea mays); [25]) | Plant response rating, Blackgrass [10, 24] | Plant response rating, Ragweed [11, 24] | Plant response rating, Ragweed [11, 25] | Plant response rating, Kochia (Kochia (Kochia scoparia) [12]; [24]) | Plant response rating, Kochia (Kochia (Kochia scoparia) [12]; [25]) | Plant response rating, Wheat [14, 24] | Plant response rating, Wheat [14, 25] | Plant response rating, Ryegrass, Italian [15, 24] | Plant response rating, Ryegrass, Italian [15, 25] | Plant response rating (scale of 0 to 100), Sedge, Umbrella ([19]; 31 g ai/ha) | Plant response rating (scale of 0 to 100), Sedge, Umbrella ([19]; 62 g ai/ha) | Plant response rating (scale of 0 to 100), Sedge, Umbrella ([19]; 125 g ai/ha) | Plant response rating (scale of 0 to 100), Sedge, Umbrella ([19]; 250 g ai/ha) | Plant response rating (scale of 0 to 100), Ducksalad ([20]; 31 g ai/ha) | Plant response rating (scale of 0 to 100), Ducksalad ([20]; 62 g ai/ha) | Plant response rating (scale of 0 to 100), Barnyardgrass ([21]; 31 g ai/ha) | Plant response rating (scale of 0 to 100), Barnyardgrass ([21]; 62 g ai/ha) | Plant response rating (scale of 0 to 100), Rice (rice (Oryza sativa); 31 g ai/ha) | Plant response rating (scale of 0 to 100), Rice (rice (Oryza sativa); 62 g ai/ha) | Plant response rating (scale of 0 to 100), Rice (rice (Oryza sativa); 125 g ai/ha) | Plant response rating (scale of 0 to 100), Rice (rice (Oryza sativa); 250 g ai/ha)
40: Plant response rating, Sedge, Umbrella [1] | Plant response rating, Blackgrass [10, 25] | Plant response rating (scale of 0 to 100), Barnyardgrass ([21]; 250 g ai/ha)
20: Plant response rating (scale of 0 to 100), Barnyardgrass ([21]; 125 g ai/ha)
60: Plant response rating, Galium [13, 24]
50: Plant response rating, Barnyardgrass [3] | Plant response rating, Barnyardgrass [7, 22] | Plant response rating, Barnyardgrass [16, 24] | Plant response rating, Pigweed [18, 24] | Plant response rating (scale of 0 to 100), Ducksalad ([20]; 125 g ai/ha)
